{"source": "patent US6774116B2", "about": "“Prodrugs via acylation with cinnamate” (priority 2001, dated 2004)", "type_in_all_cases": "in vivo, nude mice", "key": {"[1]": {"system": "Human colon carcinoma cell line LS-180", "assay": "Treatment of human colon carcinoma LS-180 xenograft with A—Z—CINN 551", "method": "Human colon carcinoma cell line LS-180 is grown in cell culture as described (Kinuya et.al. 2001. J. Nucl. Med. 42:596-600). 1×10^7 cells/mouse are implanted s.c. into nude mice. When the tumors reached 150-200 mm^3 in size, A—Z—CINN 551 is used to treat the tumor as follows; 0.1-1.0 mg of A—Z—CINN 551 (1 mg mAb protein with ˜25 ug paclitaxel covalently attached) is injected i.v. via tail vein into mice with the tumor. After 6 hours, mice that received 0.1, 0.5 or 1.0 mg of A—Z—CINN […] are anesthetized with a Ketamine/Rompun mixture. A 16 G needle is used to create a hole in the skin and a 1 mm fiber optic probe is inserted up to the tumor. The tumor is exposed to white light for 5 minutes with a power of about 0.5 mW/cm^2. […] All mice are kept under “red lights” to prevent unnecessary light exposure and activation of A—Z—CINN 551 for 72 hours post injection, then returned to normal light/dark cycle."}, "[2]": {"system": "Human lung carcinoma cell line H2987", "assay": "Treatment of human lung carcinoma H2987 xenograft with A—Z—CINN 441", "method": "MAb BR110 is a murine mAb to a 66-kDa glycoprotein that is found on the cell surface of human lung, colon and breast tumor cells. Human lung carcinoma cell line H2987 is grown in cell culture as described (U.S. Pat. No. 5,840,854). 1×10^7 cells/mouse are implanted s.c. into a nude mice. When the tumors reached 150-200 mm^3 in size, A—Z—CINN 441 is used to treat the tumor as follows: 0.1-1.0 mg of A—Z—CINN 441 (1 mg mAb protein with ˜25 ug paclitaxel covalently attached) is injected i.v. via tail vein into mice with the tumor. After 6 hours, mice that receive 0.1, 0.5 or 1.0 mg of A—Z—CINN 441 are anesthetized with a Ketamine/Rompun mixture. A 16G needle is used to create a hole in the skin and a 1 mm fiber optic probe is inserted up to the tumor. The tumor is exposed to white light for 5 minutes with a power of about 0.5 mW/cm^2. […] All mice are kept under “red lights” to prevent light activation of the drug, for 72 hours post injection, then returned to normal light/dark cycle. […] Groups that receive antibody and free drug (unlinked) show tumor growth, and by 28 days the mice either die or have tumors>800 mm^3."}, "[3]": {"system": "Human breast cancer xenographs", "assay": "Treatment of human breast carcinoma xenographs with A—Z—CINN 361", "method": "Human breast cancer xenographs are prepared as described (Burak et.al. 1998. Nucl. Med. Biol. 25:633-637) Xenographs are implanted s.c. into a nude mice. When the tumor reached 150-200 mm^3 in size, A—Z—CINN 361 is used to treat the tumor as follows; 0.1-1.0 mg of A—Z—CINN 361 (1 mg mAb protein with ˜25 ug paclitaxel covalently attached) is injected i.v. via tail vein into mice with the tumor. After 6 hours, mice that receive 0.1, 0.5 or 1.0 mg of A—Z—CINN 361 are anesthetized with a Ketamine/Rompun mixture. A 16G needle is used to create a hole in the skin and a 1 mm fiber optic probe is inserted up to the tumor. The tumor is exposed to white light for 5 minutes with a power of about 0.5 mW/cm^2. […] All mice are kept under “red lights” to prevent unnecessary light exposure and activation of A—Z—CINN 361 for 72 hours post injection, then returned to normal light/dark cycle."}, "[4]": {"conditions": "in 7 days, light treatment 6 hours after i.v. injection, 0.1, 0.5 or 1.0 mg"}}}
{"substance": "A7-mAb-S-Mal-PEG3400-N—CINN-paclitaxel [A—Z—CINN 551]", "values": [{"measurement": "tumor shrinkage", "setting": "[1]; [4]", "result": "> 50", "unit": "%"}, {"measurement": "tumor size by 28 days", "setting": "[1]; light treatment", "result": "less than 50 mm^3"}, {"measurement": "tumor size at 28 days", "setting": "[1]; no light stimulation", "result": "smaller than 100 mm^3"}]}
{"substance": "BR110-mAb-S-Mal-PEG3400-N—CINN-paclitaxel [A—Z—CINN 441]", "values": [{"measurement": "tumor shrinkage", "setting": "[2]; [4]", "result": "> 50", "unit": "%"}, {"measurement": "tumors by 28 days", "setting": "[2]; light treatment", "result": "not detectable"}, {"measurement": "tumor size at 28 days", "setting": "[2]; no light stimulation", "result": "smaller than 50 mm"}]}
{"substance": "NR-LU-10 mAb-S-Mal-PEG3400-N—CINN-paclitaxel [A—Z—CINN 361]", "values": [{"measurement": "tumor shrinkage", "setting": "[3]; [4]", "result": "> 50", "unit": "%"}, {"measurement": "tumor size by 28 days", "setting": "[3]; light treatment", "result": "less than 50 mm^3"}, {"measurement": "tumor size at 28 days", "setting": "[3]; no light stimulation", "result": "smaller than 100 mm^3"}]}
